Patent US20140303092A1 (CHIMERIX, INC., priority 2011, published 2014)

Assay: Study HDP-CDV-201: safety and tolerability (adverse events, laboratory abnormalities, discontinuations)
Assay type: in vivo, human (adult allogeneic HSCT recipients)
Protocol: Clinical Studies of HDP-CDV were performed and described in detail in the following Examples. For example, HDP-CDV-201 is a placebo-controlled, dose-escalating trial in HSCT CMV (R+) recipients, evaluating the ability of HDP-CDV to prevent or control CMV infection was carried out. Five cohorts were established in which participants or subjects received either placebo or the HDP-CDV orally, in doses ranging from 40 mg weekly (QW) to 200 mg twice weekly (BIW). Subjects who were post-HSCT were enrolled at the time of engraftment and randomized to HDP-CDV or placebo (3 to 1 ratio) and received blinded therapy until approximately 100 day post-transplantation. HDP-CDV doses were 40 mg QW, 100 mg QW, 200 mg QW, 200 mg BIW and 100 mg BIW. Escalation to the next dose was decided by the data monitoring committee after review of the safety data from the previous Cohort. Subjects who developed CMV disease or CMV infection requiring pre-emptive therapy with local standard of care were discontinued from blinded therapy and followed for 4 weeks. Subjects who completed treatment with blinded therapy were followed for 8 weeks post-therapy.
Data from Study HDP-CDV-201 also provided characterization of the safety and tolerability profile of HDP-CDV when administered for the prevention or control of CMV infection in high risk (R^+) post-HSCT adult subjects.
The Safety population (SAFETY) included all randomized subjects who took at least one dose of study treatment. This population was used to summarize safety outcomes based on the treatment actually received, in cases where a subject was treated contrary to the randomization schedule.
The safety and tolerability profile of HDP-CDV, including subject demographics and Baseline characteristics; the AE profile; and laboratory abnormalities of interest were analyzed in the cohorts followed in this investigation.
Subjects completing the treatment period received a full course of study medication; those completing the entire study attended visits through 8 weeks of follow up. Subjects who discontinued treatment may have done so for protocol specified reasons (e.g. development of clinically significant CMV infection requiring preemptive treatment with excluded anti-CMV medications) or for other reasons (e.g., withdrawal, adverse events, loss to follow-up). The disposition of subjects in Study HDP-CDV-201 during the double-blind, placebo-controlled treatment period (through Week 11) is listed by dosing Cohort in TABLE 23.
Adverse events were examined by severity to ensure that all safety signals were identified in this study population. Because of the frequency of events in HSCT recipients, particular attention was given to evaluation of Grade 3 […], 4 (severe), and 5 (fatal) adverse events.
Only those preferred terms for which at least one Grade 3 or higher event was experienced in any treatment group are listed. Cytomegalovirus-related AEs are excluded from this analysis.
HDP-CDV is a lipid conjugate of CDV. Because CDV is known to have adverse effects on renal function and bone marrow, decreased GFR and persistent neutropenia were identified as AEs of special interest. Key renal and hematological (TABLE 30) laboratory parameters were measured and listed below by Study HDP-CDV-201 treatment groups. TABLE 30 includes abnormal levels of serum creatinine, neutrophils, platelets, WBCs, and hemoglobin and includes data at Screening and during the treatment period.
A common metric for unit based dosing of medications is by weight (mg/kg). When the distribution of weights was examined for all subjects participating in the study, the median was 78 kg and the lower 25th percentile weight was approximately 65 kg, which translates to a cut-off of ˜3 mg/kg for a 200 mg total weekly dose. Based upon this approach, a cut-off of 3 mg/kg was used to assess the frequency of diarrhea and associated GI AEs reported for the subjects in Cohorts 3 or 4a (TABLE 40).

[1] = Cohort 3, 200 mg QW, through Week 11

CCCCCCCCCCCCCCCCOCCCOP(=O)(O)COC(CO)Cn1ccc(N)nc1=O (stereo not drawn) [HDP-CDV]
TEAE Vomiting Overall Frequency, subjects (Cohort 3, 200 mg QW): 6 (15.4%) | Total Bilirubin (Screening) >1-[…] ULN, subjects (Cohort 3, 200 mg QW): 0 | Total Bilirubin (Screening) >1.5-3 × ULN, subjects (Cohort 3, 200 mg QW): 0 | Total Bilirubin (Screening) >3-10 × ULN, subjects (Cohort 3, 200 mg QW): 0 | Total Bilirubin (Screening) >10 × ULN, subjects (Cohort 3, 200 mg QW): 0 | Total Bilirubin (any time during therapy) >1-[…] ULN, subjects (Cohort 3, 200 mg QW): 1 (2.6%) | Total Bilirubin (any time during therapy) >1.5-3 × ULN, subjects (Cohort 3, 200 mg QW): 3 (7.9%) | Total Bilirubin (any time during therapy) >3-10 × ULN, subjects (Cohort 3, 200 mg QW): 0 | Total Bilirubin (any time during therapy) >10 × ULN, subjects (Cohort 3, 200 mg QW): 0 | Abdominal pain leading to study drug withdrawal (Cohort 3, 200 mg QW, N = 39): 0% | All AEs leading to withdrawal (Cohort 3, 200 mg QW, N = 39): 15 (38.5%) | Diarrhoea leading to study drug withdrawal (Cohort 3, 200 mg QW, N = 39): 1 (2.6%) | Dyspepsia leading to study drug withdrawal (Cohort 3, 200 mg QW, N = 39): 2 (5.1%) | Nausea leading to study drug withdrawal (Cohort 3, 200 mg QW, N = 39): 0% | TEAE ALT increased (Cohort 3, 200 mg QW, N = 39): 2 (5.1%) n (%) | TEAE AST increased (Cohort 3, 200 mg QW, N = 39): 1 (2.6%) n (%) | TEAE Abdominal pain (Cohort 3, 200 mg QW, N = 39): 5 (12.8%) n (%) | TEAE Abdominal pain, Upper (Cohort 3, 200 mg QW, N = 39): 1 (2.6%) n (%) | TEAE Acute GVHD (Cohort 3, 200 mg QW, N = 39): 13 (33.3%) n (%) | TEAE Acute Myeloid Leukemia recurrent (Cohort 3, 200 mg QW, N = 39): 0 n (%) | TEAE Acute Renal Failure (Cohort 3, 200 mg QW, N = 39): 0 n (%) | TEAE Anxiety (Cohort 3, 200 mg QW, N = 39): 3 (7.7%) n (%) | TEAE Arthralgias (Cohort 3, 200 mg QW, N = 39): 1 (2.6%) n (%) | TEAE Back Pain (Cohort 3, 200 mg QW, N = 39): 2 (5.1%) n (%) | TEAE Blood lactate dehydrogenase increased (Cohort 3, 200 mg QW, N = 39): 0 n (%) | TEAE Creatinine increased (Cohort 3, 200 mg QW, N = 39): 3 (7.7%) n (%) | TEAE Cytomegalovirus viremia (Cohort 3, 200 mg QW, N = 39): 7 (17.9%) n (%) | TEAE Decreased appetite (Cohort 3, 200 mg QW, N = 39): 3 (7.7%) n (%) | TEAE Diarrhoea (Cohort 3, 200 mg QW, N = 39): 13 (33.3%) n (%) | TEAE Dysgeusia (Cohort 3, 200 mg QW, N = 39): 2 (5.1%) n (%) | TEAE Fatigue (Cohort 3, 200 mg QW, N = 39): 5 (12.8%) n (%) | TEAE GI Reflux Disease (Cohort 3, 200 mg QW, N = 39): 2 (5.1%) n (%) | TEAE Gamma-glutamyltransferase increased (Cohort 3, 200 mg QW, N = 39): 0 n (%) | TEAE Generalized oedema (Cohort 3, 200 mg QW, N = 39): 0 n (%) | TEAE Hyperbilirubinaemia (Cohort 3, 200 mg QW, N = 39): 3 (7.7%) n (%) | TEAE Hyperglycaemia (Cohort 3, 200 mg QW, N = 39): 1 (2.6%) n (%) | TEAE Hyperkalemia (Cohort 3, 200 mg QW, N = 39): 1 (2.6%) n (%) | TEAE Hypocalcaemia (Cohort 3, 200 mg QW, N = 39): 0 n (%) | TEAE Hypokalaemia (Cohort 3, 200 mg QW, N = 39): 5 (12.8%) n (%) | TEAE Hyponatraemia (Cohort 3, 200 mg QW, N = 39): 7 (17.9%) n (%) | TEAE Increased leukocytosis (Cohort 3, 200 mg QW, N = 39): 2 (5.1%) n (%) | TEAE Insomnia (Cohort 3, 200 mg QW, N = 39): 5 (12.8%) n (%) | TEAE Liver function test abnormal (Cohort 3, 200 mg QW, N = 39): 2 (5.1%) n (%) | TEAE Malnutrition (Cohort 3, 200 mg QW, N = 39): 1 (2.6%) n (%) | TEAE Nausea (Cohort 3, 200 mg QW, N = 39): 11 (28.2%) n (%) | TEAE Neutropenia (Cohort 3, 200 mg QW, N = 39): 4 (10.3%) n (%) | TEAE Oedema peripheral (Cohort 3, 200 mg QW, N = 39): 3 (7.7%) n (%) | TEAE Oral Candidiasis (Cohort 3, 200 mg QW, N = 39): 2 (5.1%) n (%) | TEAE Pneumonia (Cohort 3, 200 mg QW, N = 39): 0 n (%) | TEAE Pyrexia (Cohort 3, 200 mg QW, N = 39): 7 (17.9%) n (%) | TEAE Recurrent flatulence (Cohort 3, 200 mg QW, N = 39): 1 (2.6%) n (%) | TEAE Renal Failure (Cohort 3, 200 mg QW, N = 39): 0 n (%) | TEAE Staphylococcal Bacteremia (Cohort 3, 200 mg QW, N = 39): 1 (2.6%) n (%) | TEAE Thrombocytopenia (Cohort 3, 200 mg QW, N = 39): 0 n (%) | TEAE Tremor (Cohort 3, 200 mg QW, N = 39): 2 (5.1%) n (%) | TEAE Vomiting (Cohort 3, 200 mg QW, N = 39): 6 (15.4%) n (%) | Vomiting leading to study drug withdrawal (Cohort 3, 200 mg QW, N = 39): 0% | All AEs, Grade 5 (deaths) (Cohort 3, 200 mg QW, N = 39, entire study duration): 3 (7.7%) | Subjects completed treatment [1]: 18 (46.2%) n (%) | Subjects who permanently discontinued treatment [1]: 21 (53.8%) n (%) | TEAE Abdominal pain Grade 2, subjects (Cohort 3, 200 QW >3 mg/kg): 0 | TEAE Abdominal pain Grade 3, subjects (Cohort 3, 200 QW >3 mg/kg): 1 (7.1%) | TEAE Abdominal pain Grade 4, subjects (Cohort 3, 200 QW >3 mg/kg): 0 | TEAE Abdominal pain Grade 5, subjects (Cohort 3, 200 QW >3 mg/kg): 0 | TEAE Abdominal pain Overall Frequency, subjects (Cohort 3, 200 QW >3 mg/kg): 2 (14.3%) | TEAE Diarrhea Grade 2, subjects (Cohort 3, 200 QW >3 mg/kg): 4 (28.6%) | TEAE Diarrhea Grade 3, subjects (Cohort 3, 200 QW >3 mg/kg): 1 (7.1%) | TEAE Diarrhea Grade 4, subjects (Cohort 3, 200 QW >3 mg/kg): 0 | TEAE Diarrhea Grade 5, subjects (Cohort 3, 200 QW >3 mg/kg): 0 | TEAE Diarrhea Overall Frequency, subjects (Cohort 3, 200 QW >3 mg/kg): 8 (57.1%) | TEAE Hypokalaemia Grade 2, subjects (Cohort 3, 200 QW >3 mg/kg): 1 (7.1%) | TEAE Hypokalaemia Grade 3, subjects (Cohort 3, 200 QW >3 mg/kg): 0 | TEAE Hypokalaemia Grade 4, subjects (Cohort 3, 200 QW >3 mg/kg): 0 | TEAE Hypokalaemia Grade 5, subjects (Cohort 3, 200 QW >3 mg/kg): 0 | TEAE Hypokalaemia, subjects (Cohort 3, 200 QW >3 mg/kg): 4 (28.6%) | TEAE Nausea Grade 2, subjects (Cohort 3, 200 QW >3 mg/kg): 1 (7.1%) | TEAE Nausea Grade 3, subjects (Cohort 3, 200 QW >3 mg/kg): 0 | TEAE Nausea Grade 4, subjects (Cohort 3, 200 QW >3 mg/kg): 0 | TEAE Nausea Grade 5, subjects (Cohort 3, 200 QW >3 mg/kg): 0 | TEAE Nausea Overall Frequency, subjects (Cohort 3, 200 QW >3 mg/kg): 3 (21.4%) | TEAE Vomiting Grade 2, subjects (Cohort 3, 200 QW >3 mg/kg): 0 | TEAE Vomiting Grade 3, subjects (Cohort 3, 200 QW >3 mg/kg): 0 | TEAE Vomiting Grade 4, subjects (Cohort 3, 200 QW >3 mg/kg): 0 | TEAE Vomiting Grade 5, subjects (Cohort 3, 200 QW >3 mg/kg): 0 | TEAE Vomiting Overall Frequency, subjects (Cohort 3, 200 QW >3 mg/kg): 2 (14.3%) | TEAE Abdominal pain Grade 2, subjects (Cohort 3, 200 QW ≦3 mg/kg): 1 (4.0%) | TEAE Abdominal pain Grade 3, subjects (Cohort 3, 200 QW ≦3 mg/kg): 0 | TEAE Abdominal pain Grade 4, subjects (Cohort 3, 200 QW ≦3 mg/kg): 0 | TEAE Abdominal pain Grade 5, subjects (Cohort 3, 200 QW ≦3 mg/kg): 0 | TEAE Abdominal pain Overall Frequency, subjects (Cohort 3, 200 QW ≦3 mg/kg): 3 (12%) | TEAE Diarrhea Grade 2, subjects (Cohort 3, 200 QW ≦3 mg/kg): 1 (4.0%) | TEAE Diarrhea Grade 3, subjects (Cohort 3, 200 QW ≦3 mg/kg): 1 (4.0%) | TEAE Diarrhea Grade 4, subjects (Cohort 3, 200 QW ≦3 mg/kg): 0 | TEAE Diarrhea Grade 5, subjects (Cohort 3, 200 QW ≦3 mg/kg): 0 | TEAE Diarrhea Overall Frequency, subjects (Cohort 3, 200 QW ≦3 mg/kg): 5 (20%) | TEAE Hypokalaemia Grade 2, subjects (Cohort 3, 200 QW ≦3 mg/kg): 1 (4.0%) | TEAE Hypokalaemia Grade 3, subjects (Cohort 3, 200 QW ≦3 mg/kg): 0 | TEAE Hypokalaemia Grade 4, subjects (Cohort 3, 200 QW ≦3 mg/kg): 0 | TEAE Hypokalaemia Grade 5, subjects (Cohort 3, 200 QW ≦3 mg/kg): 0 | TEAE Hypokalaemia, subjects (Cohort 3, 200 QW ≦3 mg/kg): 1 (4.0%) | TEAE Nausea Grade 2, subjects (Cohort 3, 200 QW ≦3 mg/kg): 3 (12%) | TEAE Nausea Grade 3, subjects (Cohort 3, 200 QW ≦3 mg/kg): 1 (4.0%) | TEAE Nausea Grade 4, subjects (Cohort 3, 200 QW ≦3 mg/kg): 0 | TEAE Nausea Grade 5, subjects (Cohort 3, 200 QW ≦3 mg/kg): 0 | TEAE Nausea Overall Frequency, subjects (Cohort 3, 200 QW ≦3 mg/kg): 8 (32%) | TEAE Vomiting Grade 2, subjects (Cohort 3, 200 QW ≦3 mg/kg): 1 (4.0%) | TEAE Vomiting Grade 3, subjects (Cohort 3, 200 QW ≦3 mg/kg): 1 (4.0%) | TEAE Vomiting Grade 4, subjects (Cohort 3, 200 QW ≦3 mg/kg): 0 | TEAE Vomiting Grade 5, subjects (Cohort 3, 200 QW ≦3 mg/kg): 0 | TEAE Vomiting Overall Frequency, subjects (Cohort 3, 200 QW ≦3 mg/kg): 4 (16%) | Abnormal ALT >3-5x ULN, Any Time Between Week 2 and Week 10, subjects (Cohort 3, >3.0 mg/kg/wk): 1 (7.1%)
